Data: patent US9790496B2, “Microrna compounds and methods for modulating MIR-21 activity” (Regulus Therapeutics, Inc., priority 2011, dated 2017)
Where “and” joins values, the source holds several entries; their conditions need not be identical. Identical values can stand only once.

Columns and labels:
[1] = tested on: collagen 1A1 and collagen 3A1 expression in kidney, ischemia reperfusion injury (IRI) model; test: Unilateral ischemia reperfusion injury (IRI) model: kidney collagen 1A1 and collagen 3A1 expression; assay type: in vivo, mouse; details: 14 day study, dosing Day 5, 6, 7, fold change relative to sham
[2] = tested on: collagen 1A1 and collagen 3A1 expression in kidney, ischemia reperfusion injury (IRI) model; test: as above; assay type: in vivo, mouse
Protocol: A model of ischemia reperfusion injury (IRI) is created in the mouse through unilateral or bilateral clamping of kidney arteries, which leads to tubule damage, inflammation, and fibrosis. Kidney dysfunction can occur either early (<5 days) or late (>7 days) in this model, with the early time points useful to test candidate agents for the treatment of acute kidney injury, and the later time points useful to model chronic fibrosis.
Anti-miR-21 compounds were tested in the unilateral IRI model. Unilateral IRI was induced for a period of 30 minutes. Treatment groups were as follows: sham IRI procedure; IRI with PBS administered subcutaneously; IRI with anti-miR-21 compound 25070 administered intraperitoneally at a dose of 20 mg/kg; the 2′-fluoro/2′-MOE modified anti-miR-21 25919 administered intraperitoneally at a dose of 20 mg/kg; and a 2′-fluoro/2′ modified mismatch anti-miR-21 (having three mismatches to the sequence of miR-21) 25319 administered intraperitoneally at a dose of 20 mg/kg. PBS or anti-miR compound was administered on days 5, 6, and 7 following IRI, and animals were sacrificed 14 days after IRI. As anti-miR compound is administered 5 days following the injury to the kidney, or later, when fibrosis has already occurred to some extent, this treatment regimen is considered a therapeutic regimen, rather than a prophylactic regimen.
Kidney tissue was collected for analysis of collagen 1A1 and collagen 3A1 expression (shown in Table O), and collagen area fraction (shown in Table P).
A similar study was performed with the same treatment groups and additional days of treatment. In this study, treatments were administered intraperitoneally at days 5, 6, 7, 14, and 21 following the IRI procedure Animals were sacrificed on Day 27, and kidney tissue was collected for analysis of collagen 1A1 and collagen 3A1 expression, as well as collagen area fraction.
In order to assess the flexibility of administration of the anti-miR-21 compound 25070, the activity of the compound in the 14 day study above, where anti-miR-21 was administered at […] following the IRI procedure, to a different 14 day study where anti-miR-21 was administered intraperitoneally at days 3, 5, and 7 following the IRI procedure.

[3] = tested on: ischemia reperfusion injury/nephrectomy (IR/Nx) model; test: Survival rate of IR/Nx model mice two days after nephrectomy; assay type: in vivo
Protocol: The survival rate of IR/Nx model mice two days after nephrectomy was determined across six different experiments to determine if administration of anti-miR-21 compounds increases survival. In the first three experiments, anti-miR-21 compound was administered on days 5, 6, and 7 after ischemia reperfusion injury, and nephrectomy occurred on day 10 or day 11. In the second three experiments, anti-miR-21 compound was administered on days 2, 3, and 4, and nephrectomy occurred on day 7.

[4] = tested on: collagen 1A1 and collagen 3A1 expression in kidney, unilateral ureteral obstruction (UUO) model; test: UUO model of kidney fibrosis: kidney collagen 1A1 and collagen 3A1 expression by real-time PCR; assay type: in vivo, mice; details: for Collagen 1A1 (Normalized Expression), individual animal / Collagen 3A1 (Normalized Expression), individual animal: 20 mg/kg
Method in brief: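 Fibrosis induced by unilateral ureter ligation, groups of 8; anti-miR-21 compounds dosed at 20 mg/kg around surgery (days −3, −1, +5 or −5, −3, +3; repeat study subcutaneous at −5, −2, +3). Kidneys taken on day 10 or 11; Col1A1 and Col3A1 mRNA measured by real-time PCR, normalized to GAPDH and, in one study, also to sham.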

[5] = IRI, 14 day study, dosing Day 3, 5, 7 intraperitoneally, fold change relative to sham
[6] = unilateral IRI, 20 mg/kg intraperitoneally on days 5, 6, 7, sacrifice 14 days after IRI, 20 mg/kg
[7] = unilateral IRI, intraperitoneally on days 5, 6, 7, 14, 21, sacrifice Day 27
[8] = UUO comparison study, 25070 20 mg/kg s.c. at days -5, -2, +3, irbesartan PO daily days 0-7, sacrifice Day 10
[9] = UUO, 20 mg/kg at days -3, -1, +5 (prophylactic), kidney at day 11, real-time PCR normalized to GAPDH then sham
[10] = meta-analysis of repeated UUO studies, 20 mg/kg at days -3, -1, +5, kidney at day 11
[11] = repeat UUO study, 20 mg/kg SC, prophylactic

AECSATCSAGTCSTGAUSAAGCSTAE (ACATCAGTCTGATAAGCTA; modified nucleosides coded in name, code key not given here) [Compound 25070]
Collagen 1A1 (Normalized Expression), individual animal [1]: 21.7 and 22.8 and 15.8 and 27.6 and 27.1 and 29.3 and 10.8 and 21.5 and 29.9 and 35.0 and 28.3 and 24.2
Collagen 3A1 (Normalized Expression), individual animal [1]: 24.9 and 26.3 and 13.6 and 25.4 and 32.7 and 29.9 and 9.7 and 22.2 and 33.2 and 35.4 and 32.3 and 28.9
reduction of collagen 1A1 or collagen 3A1 expression relative to sham (in words) ([2]; IRI, 14 day studies, two dosing schedules compared (days 3, 5, 7 i.p.)): statistically significant reduction of collagen expression with either dosing schedule
Collagen 1A1 (Normalized Expression), individual animal [2, 5]: 37.5 and 21.9 and 35.3 and 26.0 and 24.9 and 16.8 and 30.8 and 34.3 and 36.8 and 9.4 and 28.0 and 24.6
Collagen 3A1 (Normalized Expression), individual animal [2, 5]: 35.3 and 23.6 and 32.1 and 25.1 and 31.3 and 18.6 and 30.3 and 37.6 and 40.0 and 9.5 and 23.2 and 28.7
Collagen 1A1 (Normalized Expression), individual animal [2, 6]: 81.7 and 57.4 and 37.9 and 55.3 and 22.3 and 52.4 and 53.0 and 41.5
Collagen 3A1 (Normalized Expression), individual animal [2, 6]: 57.8 and 18.1 and 39.3 and 36.0 and 20.6 and 38.6 and 33.4 and 29.7
Collagen 1A1 (Normalized Expression), individual animal [2, 7]: 26.4 and 37.4 and 41.9 and 36.8 and 14.1 and 27.7 and 29.4 and 37.6
Collagen 3A1 (Normalized Expression), individual animal [2, 7]: 16.4 and 27.0 and 28.5 and 19.6 and 11.3 and 19.3 and 21.4 and 23.1
Survival rate 2 days after Nx ([3]; Study 4, Nx Day 7, 20 mg/kg on days 2, 3, 4 after IR): 75%
survival rate 2 days after nephrectomy ([3]; first three experiments: dosing days 5, 6, 7, nephrectomy day 10 or 11, PBS 55%, P=0.02): 80%
survival rate 2 days after nephrectomy ([3]; second three experiments: dosing days 2, 3, 4, nephrectomy day 7, PBS 52%, P=0.11): 69%
Collagen 1A1 (Normalized Expression), individual animal [4, 8]: 87.5 and 67.4 and 22.2 and 61.9 and 42.0 and 69.2 and 68.4 and 95.2
Collagen 3A1 (Normalized Expression), individual animal [4, 8]: 38.6 and 56.9 and 77.2 and 50.7 and 76.4 and 49.7 and 44.3 and 35.9
reduction in Col3a1 expression (in words) ([4]; UUO comparison with irbesartan, 25070 s.c. 20 mg/kg days -5, -2, +3, irbesartan perorally daily days 0-7, day 10): statistically significant reductions
reduction in Col1A1 expression relative to saline-treated animals (in words) ([4]; UUO comparison with irbesartan, 25070 s.c. 20 mg/kg days -5, -2, +3, irbesartan perorally daily days 0-7, day 10, p<0.05 one-way ANOVA): statistically significant reduction
Collagen 1A1 (Normalized Expression), Mean ([4]; UUO, 20 mg/kg at days -3, -1, +5 (prophylactic), kidney at day 11, group mean): 81.0
Collagen 1A1 (Normalized Expression), individual animal [4, 9]: 67.7 and 97.7 and 88.8 and 95.9 and 71.4 and 44.5 and 73.0 and 109.4
Collagen 3A1 (Normalized Expression), individual animal [4, 9]: 36.4 and 75.6 and 47.3 and 55.5 and 63.3 and 28.5 and 64.2 and 72.9
inhibition of collagen 1A1 expression [4, 10]: 40%
inhibition of collagen 3A1 expression [4, 10]: 30%
Collagen 1A1 (Normalized Expression), individual animal [4, 11]: 13.9 and 9.2 and 32.3 and 57.2 and 47.6 and 26.1 and 35.0 and 20.4
Collagen 3A1 (Normalized Expression), individual animal [4, 11]: 34.9 and 47.4 and 25.3 and 38.0 and 47.9 and 54.3 and 56.1 and 35.2
inhibition of collagen 1A1 and collagen 3A1 expression (in words) ([4]; repeated UUO study, subcutaneously 20 mg/kg, prophylactic): potent inhibitor of collagen 1A1 and collagen 3A1 expression
